Measurements as given in patent US6544989B2, “Benzazoles: benzoxazole, benzthiazole and benzimidazole derivatives” (Syngenta Limited, priority 1998, dated 2003).

Legend:
Pyricularia oryzae = assay type: in vivo; details: METHOD 2 (unbanded)
[1] = test system: Erysiphe graminis f.sp. tritici; test: Fungicidal test, Erysiphe graminis f.sp. tritici (ERYSGT) on wheat, PRCO; assay type: in vivo; details: 1 d Prot/Foir; METHOD 2 (unbanded)
Uncinula necator = test: Fungicidal test, Uncinula necator (UNCINE) on vines, PRCO; assay type: in vivo; details: METHOD 2 (unbanded)
Plasmopara viticola = test: Fungicidal test, Plasmopara viticola (PLASVI) on vines, PRCO; assay type: in vivo; details: METHOD 2 (unbanded)
Puccinia recondita = test: Fungicidal test, Puccinia recondita (PUCCRT) on wheat, PRCO; assay type: in vivo; details: METHOD 2 (unbanded)
Venturia inaequalis = test: Fungicidal test, Venturia inaequalis (VENTIN) on apples, PRCO; assay type: in vivo; details: METHOD 2 (unbanded)
Musca domestica = details: 500 ppm by weight; knockdown assessed 15 minutes after treatment
Septoria nodorum = test: Fungicidal test, Septoria nodorum (LEPTNO) on wheat, PRCO; assay type: in vivo; details: METHOD 2 (unbanded)
Meloidogyne incognita = test: Nematode test, J2 infective juveniles of Meloidogyne incognita, mortality; details: 12.5 ppm; J2 infective juveniles suspended in solution; mortality after three days
Description: The activities of individual compounds of formula (I) were determined using a variety of pests. With the exception of nematodes, the pests were treated with a liquid composition containing 500 parts per million (ppm) by weight of a compound unless otherwise stated. Each composition was made by dissolving the compound in an acetone and ethanol (50:50 by volume) mixture and diluting the solution with water containing 0.05% by volume of a wetting agent, SYNPERONIC NP8, until the liquid composition contained the required concentration of the compound.
The test procedure for nematodes involved dissolving the compound in an acetone and ethanol (50:50 by volume) mixture and diluting the solution with water to obtain a final concentration of the compound of 12.5 ppm. J2 infective juveniles of Meloidogyne incognita were suspended in the solution in a glass vial and mortality assessed after a period of three days.

[2] = test system: Phytophthora infestans lycopersici; assay type: in vivo; details: METHOD 2 (unbanded)

Row | SMILES | PYRIOR 1 d Prot/Foir PRCO (Pyricularia oryzae) | ERYSGT 1 d Prot/Foir PRCO [1] | UNCINE 1 d Prot/Foir PRCO (Uncinula necator) | PLASVI 1 d Prot/Foir PRCO (Plasmopara viticola) | PUCCRT 1 d Prot/Foir PRCO (Puccinia recondita) | VENTIN 1 d Prot/Foir PRCO (Venturia inaequalis) | MUSCDO AC = Musca domestica (knockdown), score (Musca domestica) | LEPTNO 1 d Prot/Foir PRCO (Septoria nodorum) | MELGIN = Meloidogyne incognita, grading of mortality (score) (Meloidogyne incognita) | PHYTIN 1 d Prot/Foir PRCO [2]
1 | Cc1nsc(NC(=O)Cc2ccc3oc(-c4sccc4Cl)nc3c2)c1Cl [331(A3)] | 81 | 33 | 76 | 49 | 95 | 5 | 0 (0 indicates less than 40% mortality) | 17 | – | –
2 | Cc1cc(NC(=O)Cc2ccc3oc(CC(C)(C)C)nc3c2)sn1 [15(A1)] | 87 | 43 | 100 | – | 96 | 54 | 5 (5 indicates 40-79% mortality) | 4 | 0 (0 indicates less than 40% mortality) | 100
3 | Cc1nsc(NC(=O)Cc2ccc3oc(CC4CC4)nc3c2)c1Cl [41(A3)] | 33 | 59 | 91 | – | 98 | 50 | 0 (0 indicates less than 40% mortality) | 77 | 0 (0 indicates less than 40% mortality) | 100
4 | CCN(C(=O)Cc1ccc2oc(CC(C)(C)C)nc2c1)c1snc(C)c1Cl [15(C3)] | 7 | 38 | 100 | – | 13 | 64 | 9 (9 indicates 80-100% mortality) | 93 | 0 (0 indicates less than 40% mortality) | 97
5 | Cc1nsc(NC(=O)Cc2ccc3ocnc3c2)c1Cl [1(A3)] | 91 | 88 | 43 | 6 | 59 | 25 | 0 (0 indicates less than 40% mortality) | – | 5 (5 indicates 40-79% mortality) | 100
6 | COc1nc2cc(CC(=O)Nc3snc(C)c3Cl)ccc2o1 [203(A3)] | 96 | 98 | 69 | – | 100 | 65 | 9 (9 indicates 80-100% mortality) | −3 | 0 (0 indicates less than 40% mortality) | 85
7 | Cc1nc2cc(CC(=O)Nc3snc(C)c3Br)ccc2o1 [2(A4)] | 99 | 97 | 90 | – | 100 | 92 | 5 (5 indicates 40-79% mortality) | −12 | 0 (0 indicates less than 40% mortality) | 100
8 | Cc1nsc(NC(=O)Cc2ccc3oc(CC#N)nc3c2)c1Cl [113(A3)] | 28 | 5 | 21 | – | 41 | 8 | 0 (0 indicates less than 40% mortality) | 20 | 0 (0 indicates less than 40% mortality) | 38
9 | CCCN(C(=O)Cc1ccc2oc(CC(C)(C)C)nc2c1)c1snc(C)c1Cl [15(D3)] | 27 | 55 | 100 | – | 25 | −14 | 0 (0 indicates less than 40% mortality) | 70 | 0 (0 indicates less than 40% mortality) | 99
10 | Cc1nsc(N(C(=O)Cc2ccc3oc(CC(C)(C)C)nc3c2)C(C)C)c1Cl [15(N3)] | 13 | 8 | 87 | – | 3 | 3 | 0 (0 indicates less than 40% mortality) | −2 | 0 (0 indicates less than 40% mortality) | 3
11 | Cc1nsc(NC(=O)Cc2ccc3oc(NC(C)(C)C)nc3c2)c1Cl [183(A3)] | 99 | 99 | 98 | – | 99 | 98 | 0 (0 indicates less than 40% mortality) | 19 | 0 (0 indicates less than 40% mortality) | 100
12 | CCOc1nc2cc(CC(=O)Nc3snc(C)c3Cl)ccc2o1 [204(A3)] | 96 | 87 | 81 | – | 99 | 22 | 9 (9 indicates 80-100% mortality) | 67 | 0 (0 indicates less than 40% mortality) | 100
13 | Cc1nc2ccc(CC(=O)Nc3snc(C)c3Cl)cc2[nH]1 [2(A43)] | 48 | 20 | 11 | – | 7 | 14 | 0 (0 indicates less than 40% mortality) | −3 | 5 (5 indicates 40-79% mortality) | 18
14 | Cc1nsc(NC(=O)Cc2ccc3oc(N4CCOCC4)nc3c2)c1Cl [191(A3)] | 92 | 94 | 100 | – | 99 | 10 | 5 (5 indicates 40-79% mortality) | 36 | 9 (9 indicates 80-100% mortality) | 92
15 | CCOCN(C(=O)Cc1ccc2oc(CC(C)(C)C)nc2c1)c1snc(C)c1Cl [15(L3)] | 20 | 100 | 99 | – | 17 | −21 | 9 (9 indicates 80-100% mortality) | 40 | 0 (0 indicates less than 40% mortality) | 97
16 | COC(=O)CSc1nc2cc(CC(=O)Nc3snc(C)c3Cl)ccc2o1 [229(A3)] | 55 | 21 | −9 | – | 6 | 10 | 0 (0 indicates less than 40% mortality) | 2 | 0 (0 indicates less than 40% mortality) | 92
